Experimental data as given in patent US6235284A, “Synthetic polypeptides belonging to the hepatitis C virus (HCV) and which can be used especially for detecting the latter” (Bio Merieux, priority 1992, dated 2001).

Experiments:
[1] = test system: anti-HCV antibodies (HCV-positive sera); experiment: ELISA detection of anti-HCV antibodies in HCV-positive sera with adsorbed peptides; format: binding, human
Procedure: The reactivity of these three peptides towards the sera of individuals infected with the hepatitis C virus, termed (HCV) positive, was evaluated in an ELISA test according to the procedure described below.
Detection of anti-HCV Antibodies by ELISA
The wells of a microtiter plate of "NUNC MAXISORB™" trademark are saturated with 100 μl of a solution containing the peptide or a mixture of peptides (10 μg/ml) for 2 hours at 37° C. The plate is then emptied, then washed with a wash buffer containing 0.05% TWEEN™ 20(polysorbate 20). The wells are saturated with 100 μl of wash buffer supplemented with 10% goat serum (v/v), then incubated for 30 minutes at 37° C., then washed again as above. The sera to be analyzed are diluted to the appropriate dilution with saturation buffer. The incubation of the sera is 1 hour at 37° C. The wells are again washed. The solution of conjugate (goat IgG to human IgG labelled with peroxidase) at a dilution of 1/1000 in the saturation buffer is then added and the incubation lasts for 90 minutes at 37° C. After washing, the solution of orthophenylenediamine substrate is added. After 10 minutes, the reaction is stopped with 50 μl of H2 SO4 and the optical density is read at 492 nm. It should be noted that all the tests were carried out in duplicate.
For that, the different peptides are adsorbed on the microplates at a concentration of 10 μg/ml and the sera are used at 1/100 dilution.
The values obtained, which are collated in Table 1 below, correspond to the optical density (OD) multiplied by 10^3, at 492 nm.
For each serum the experiment was carried out in duplicate. The **** are values outside the upper scale.
The different peptides are absorbed onto microplates at a concentration of 10 μg/ml and the sera are used at the dilution stated.
The values obtained, which are collated in Table 2 below, correspond to the optical density at 492 nm. All the experiments were carried out in duplicate.
Each serum was, in a first instance, tested at the dilution 1/100.
The values given correspond to the optical density read at 492 nm multiplied by the factor 10^3.

[2] = test system: anti-HCV antibodies binding onto peptide S42G; experiment: Inhibition test: inhibition of binding of anti-HCV antibodies onto peptide S42G by preincubation with peptides; parameters: species or system human; details: inhibitor 0.1 mg/ml
Procedure: To evaluate this hypothesis, inhibition tests, whose usefulness lies in the fact that they allow the formation of the antigen-antibody complex in liquid medium, were carried out, thus dispensing with possible artifacts linked to the adsorption of peptides onto a solid support.
The inhibition experiments were carried out by reaction, in liquid phase, of the HCV sera with the peptides followed by reaction of the remaining antibodies with the peptide adsorbed onto the microplates. The inhibitory peptides are incubated at a concentration of 0.1 mg/ml with sera of appropriate dilution. The rest of the manipulation is identical to that described for the ELISA test.
Peptide S18D (SEQ ID NO:11), or V22G (SEQ ID NO:12), or a mixture of both, is preincubated overnight in the presence of the serum to be tested. The antibodies can bind onto the corresponding sites.

Substance: S18D: a peptide of 20 amino acids covering sequence 2 to 21 of the CORE protein (STNPKPQRKTKRNTNRRPQD)
- optical density at 492 nm ([1]; Table 2, line 68, serum not named (below CTS), 1/100): 2.500 OD
- optical density at 492 nm ([1]; Table 2, line 69, serum not named (below CTS), 1/1000): 2.500 OD
- optical density at 492 nm ([1]; Table 2, line 70, serum not named (below CTS), 1/10000): 0.347 OD
- optical density at 492 nm ([1]; Table 2, line 75, serum B4, 1/1000): 1.250 OD
- optical density at 492 nm ([1]; Table 2, line 76, serum B4, 1/1000 (so in the source)): 0.171 OD
- optical density at 492 nm ([1]; Table 2, serum B1, 1/100): 1.859 OD
- optical density at 492 nm ([1]; Table 2, serum B2, 1/100): 1.781 OD
- optical density at 492 nm ([1]; Table 2, serum B3, 1/100): 1.244 OD
- optical density at 492 nm ([1]; Table 2, serum B4, 1/100): 2.500 OD
- optical density at 492 nm ([1]; Table 2, serum B5, 1/100): 2.032 OD
- optical density at 492 nm ([1]; Table 2, serum B6, 1/100): 2.500 OD
- optical density at 492 nm ([1]; Table 2, serum B7, 1/100): 2.500 OD
- optical density at 492 nm ([1]; Table 2, serum B8, 1/100): 1.362 OD
- optical density at 492 nm ([1]; Table 2, serum B9, 1/100): 0.808 OD
- optical density at 492 nm ([1]; Table 2, serum B10, 1/100): 0.099 OD
- optical density at 492 nm ([1]; Table 2, serum B11, 1/100): 2.324 OD
- optical density at 492 nm ([1]; Table 2, serum B12, 1/100): 1.375 OD
- optical density at 492 nm ([1]; Table 2, serum B13, 1/100): 0.370 OD
- optical density at 492 nm ([1]; Table 2, serum B14, 1/100): 0.072 OD
- optical density at 492 nm ([1]; Table 2, serum B15, 1/100): 0.090 OD
- optical density at 492 nm ([1]; Table 2, serum B16, 1/100): 2.500 OD
- optical density at 492 nm ([1]; Table 2, serum CTS, 1/100): 2.500 OD
- optical density at 492 nm ([1]; Table 2, serum CTS, 1/1000): 2.500 OD
- optical density at 492 nm ([1]; Table 2, serum CTS, 1/10000): 0.295 OD
- optical density at 492 nm ([1]; Table 2, serum P1, 1/100): 0.012 OD
- optical density at 492 nm ([1]; Table 2, serum P2, 1/100): 0.020 OD
- optical density at 492 nm ([1]; Table 2, serum P3, 1/100): 0.162 OD
- optical density at 492 nm ([1]; Table 2, serum P4, 1/100): 0.982 OD
- optical density at 492 nm ([1]; Table 2, serum P5, 1/100): 2.500 OD
- optical density at 492 nm ([1]; Table 2, serum P5, 1/1000): 2.317 OD
- optical density at 492 nm ([1]; Table 2, serum P5, 1/10000): 0.399 OD
- optical density at 492 nm ([1]; Table 2, serum P6, 1/100): 0.007 OD
- optical density at 492 nm ([1]; Table 2, serum P7, 1/100): 2.500 OD
- optical density at 492 nm ([1]; Table 2, serum P7, 1/1000): 0.854 OD
- optical density at 492 nm ([1]; Table 2, serum P7, 1/10000): 0.165 OD
- optical density at 492 nm ([1]; Table 2, serum P8, 1/100): 2.500 OD
- optical density at 492 nm ([1]; Table 2, serum P8, 1/1000): 2.500 OD
- optical density at 492 nm ([1]; Table 2, serum P8, 1/10000): 0.681 OD
- optical density at 492 nm ([1]; Table 2, serum P9, 1/100): 0.019 OD
- optical density at 492 nm ([1]; Table 2, serum P10, 1/100): 0.028 OD
- optical density at 492 nm ([1]; Table 2, serum P11, 1/100): 0.383 OD
- optical density at 492 nm ([1]; Table 2, serum P12, 1/100): 2.500 OD
- optical density at 492 nm ([1]; Table 2, serum P12, 1/1000): 2.500 OD
- optical density at 492 nm ([1]; Table 2, serum P12, 1/10000): 0.454 OD
- optical density at 492 nm ([1]; Table 2, serum P13, 1/100): 0.012 OD
- optical density at 492 nm ([1]; Table 2, serum P14, 1/100): 0.907 OD
- optical density at 492 nm ([1]; Table 2, serum P15, 1/100): 2.500 OD
- optical density at 492 nm ([1]; Table 2, serum P16, 1/100): 0.225 OD
- optical density at 492 nm ([1]; Table 2, serum P17, 1/100): 0.297 OD
- optical density at 492 nm ([1]; Table 2, serum P18, 1/100): 2.500 OD
- optical density at 492 nm ([1]; Table 2, serum P18, 1/1000): 0.297 OD
- optical density at 492 nm ([1]; Table 2, serum P18, 1/10000): 0.095 OD
- optical density at 492 nm ([1]; Table 2, serum P19, 1/100): 0.011 OD
- optical density at 492 nm ([1]; Table 2, serum P20, 1/100): 1.433 OD
- optical density at 492 nm ([1]; Table 2, serum P21, 1/100): 0.111 OD
- optical density at 492 nm ([1]; Table 2, serum P22, 1/100): 2.500 OD
- optical density at 492 nm ([1]; Table 2, serum P22, 1/1000): 1.142 OD
- optical density at 492 nm ([1]; Table 2, serum P22, 1/10000): 0.146 OD
- optical density at 492 nm ([1]; Table 2, serum P23, 1/100): 0.015 OD
- optical density at 492 nm ([1]; Table 2, serum P24, 1/100): 0.015 OD
- optical density at 492 nm ([1]; Table 2, serum P25, 1/100): 2.500 OD
- optical density at 492 nm ([1]; Table 2, serum P25, 1/1000): 2.199 OD
- optical density at 492 nm ([1]; Table 2, serum P25, 1/10000): 0.329 OD
- optical density at 492 nm ([1]; Table 2, serum P26, 1/100): 2.500 OD
- optical density at 492 nm ([1]; Table 2, serum P26, 1/1000): 2.500 OD
- optical density at 492 nm ([1]; Table 2, serum P26, 1/10000): 0.957 OD
- optical density at 492 nm ([1]; Table 2, serum P27, 1/100): 1.425 OD
- optical density at 492 nm ([1]; Table 2, serum P28, 1/100): 0.115 OD
- optical density at 492 nm ([1]; Table 2, serum P29, 1/100): 0.000 OD
- optical density at 492 nm ([1]; Table 2, serum P30, 1/100): 0.483 OD
- optical density at 492 nm ([1]; Table 2, serum P31, 1/100): 2.500 OD
- optical density at 492 nm ([1]; Table 2, serum P31, 1/1000): 1.975 OD
- optical density at 492 nm ([1]; Table 2, serum P31, 1/10000): 0.183 OD
- optical density at 492 nm ([1]; Table 2, serum P32, 1/100): 1.046 OD
- optical density at 492 nm ([1]; Table 2, serum P33, 1/100): 1.307 OD
- optical density at 492 nm ([1]; Table 2, serum P34, 1/100): 2.500 OD
- optical density at 492 nm ([1]; Table 2, serum P35, 1/100): 2.500 OD
- optical density at 492 nm ([1]; Table 2, serum P36, 1/100): 0.115 OD
- optical density at 492 nm ([1]; Table 2, serum P37, 1/100): 2.500 OD
- optical density at 492 nm ([1]; Table 2, serum P37, 1/1000): 0.523 OD
- optical density at 492 nm ([1]; Table 2, serum P37, 1/10000): 0.102 OD
- optical density at 492 nm ([1]; Table 2, serum P38, 1/100): 2.500 OD
- optical density at 492 nm ([1]; Table 2, serum P38, 1/1000): 0.753 OD
- optical density at 492 nm ([1]; Table 2, serum P38, 1/10000): 0.099 OD
- optical density at 492 nm ([1]; Table 2, serum P39, 1/100): 2.500 OD
- optical density at 492 nm ([1]; Table 2, serum P40, 1/100): 2.500 OD
- optical density at 492 nm ([1]; Table 2, serum P41, 1/100): 1.579 OD
- optical density at 492 nm ([1]; Table 2, serum P42, 1/100): 0.000 OD
- reactivity towards HCV-positive sera ([1]; in words): react
- inhibition ([2]; serum B4, 1/10,000): 16.8%
- inhibition ([2]; serum P5, 1/10,000): 3.5%
- inhibition ([2]; serum P7, 1/10,000): 8.4%
- inhibition ([2]; serum P8, 1/10,000): 1.4%
- inhibition ([2]; serum P18, 1/10,000): 10.6%
- inhibition ([2]; serum P22, 1/10,000): 6.6%
- inhibition ([2]; serum P25, 1/10,000): 14.1%
- inhibition ([2]; serum P31, 1/10,000): 2.0%
- inhibition ([2]; serum P37, 1/10,000): 43.6%
- inhibition ([2]; serum P38, 1/10,000): 8.9%
